The results in this text go back to patent publication US20250367182A1, “METHOD FOR INDUCING IN-SITU REGENERATION OF MAMMAL AND USE THEREOF” (INSTITUTE OF ZOOLOGY, CHINESE ACADEMY OF SCIENCES, priority 2022, published 2025).

“Also recorded” adds a separate entry of the source. Read-outs that look alike come from different tables or passages of the source.

In test [1] the test system is 2 mm diameter mouse ear hole. Nature of the test: 2 mm ear hole trauma mouse model (ear hole closure). The conditions noted are these: in vivo. Also noted: species or system C57BL/6 mice.
For test [2], the system named is 4 mm diameter mouse ear hole. Also noted: species or system mice. Conditions: in vivo.
The test system of test [3] is bleomycin-induced lung fibrosis injury. Nature of the test: bleomycin-induced chronic injury model of lung fibrosis. The test is classed as in vivo, C57B1/6 mice.
The next test relates to scalded skin. Kind of test: mouse skin scald model. Type of test: in vivo, mice. Conditions: CHX 20 mg/kg.
For test [4], the system named is STING-TBK1-IRF3 signaling pathway / ISG genes in mouse primary fibroblasts and macrophages. Nature of the test: CHX-induced ISG gene expression in primary cells (RNA-seq, Ribo-seq, qPCR, immunofluorescence). Type of test: cell-based.
Test [5] deals with protein translation process.
[6] abbreviates: CHX 20 mg/kg, lung function testing.

As for `COc1ccc(C[C@H]2NC[C@H](O)[C@H]2OC(C)=O)cc1` [Ani, Anisomycin], in test [1], the “healing of the 2 mm ear hole” value is on record as “significantly promote the healing of the ear hole”.

Take `C[C@@H]1C[C@@H]([C@H](O)CC2CC(=O)NC(=O)C2)C(=O)[C@@H](C)C1` [CHX, 4-((R)-2-((1S,3S,5S)-3,5-dimethyl-2-oxocyclohexyl)-2-hydroxyethyl)piperidine-2,6-dione]: in test [1], the “HE staining of auricle tissue” value is “healed the tissue after damage and formed granulation tissue”; the “HE staining of auricle tissue: healing of trauma” value is reported as “completely healed”; the “HE staining of wound site: regenerated tissues” value was “regeneration of tissues and tissue derivatives such as hair follicles, glands, cartilage, muscles and blood vessels”; the “KI67 immunohistochemical staining of auricle tissue (basal cells)” value is recorded as “expressed a large amount of KI67”. In addition, in test [1], the “closure of 2 mm ear hole wound” value was “completely closed”, the “dose dependence of promotion of 2 mm ear hole healing” value was “dose-dependent”, the “healing condition of 2 mm ear hole (photograph)” value is “completely closed” and the “healing effect compared with Ani” value is given as “better”. In test [1], the “healing effect with different administration manners” value was “healing effects were produced; also recorded: different manners of administration had the effect of promoting regeneration” and the “healing of the 2 mm ear hole” value is “significantly promote the healing of the ear hole”. Also, the “closure of 2 mm diameter ear holes” value in test [1] (ip) is listed as “promoted the closure”. The “wound area of 4 mm ear hole” value in test [2] is listed as “significantly reduced”. In test [3] (CHX 20 mg/kg i.p. every two days from 2 days after surgery, 18th day of treatment), this compound displayed a survival rate of 75%. Besides, in test [3] (CHX 20 mg/kg, ***P<0.001), the body weight loss result is reported as “significantly inhibited the body weight loss”. Moreover, the “lung fibrosis (HE staining and Sirius red staining)” value in test [3] (CHX 20 mg/kg, after 14 days of treatment) was “significantly inhibited”. Further, the body weight in test [3] (CHX 20 mg/kg, after 15 days) is around 85%. In test [3] (setting [6]), the respiratory rate result is “significantly maintained normal” and the tidal volume result is “significantly maintained normal”. Moreover, the “tissue integrity and fibrosis (HE staining)” value in test [3] (CHX administration started 9 days after bleomycin injury (more severe model)) was “significantly restored tissue integrity and reduced fibrosis”. Moreover, in test [3] (CHX-treated group), the “development-related genes (blood vessels, circulatory system), RNA-Seq” value is “upregulated” and the “genes related to respiratory system development, RNA-Seq” value was “promoted the upregulation”. The “fibrosis-related genes (extracellular matrix, collagen), RNA-Seq” value in test [3] (CHX-treated group vs control after injury) was “significantly downregulate”. Also, in the test with scalded skin, the “collagen accumulation (Sirius red staining)” value was “reduced collagen accumulation”; the “skin tissue regeneration (histochemical staining)” value was “significantly promoted the regeneration of epidermis, hair follicles, glands, dermis, and blood vessels”. For the same compound, the scar area entry in the test on scalded skin (after 40 days of administration) was “significantly reduced scar area”. The “expression of classical ISGs (Mx2, Ifit1, Cxcl10, Ifih1), qPCR” value in test [4] (CHX, fibroblasts and macrophages) is reported as “upregulate the expression of classical ISGs”. Moreover, the “STING-TBK1-IRF3 signaling (perinuclear STING, nuclear IRF3), immunofluorescence” value in test [4] (CHX, in vitro) is on record as “activated ISGs by activating the STING-TBK1-IRF3 signaling pathway”. Besides, the “number of genes upregulated at both transcriptional and translational levels in both cell types” value in test [4] (CHX, mouse primary fibroblasts and macrophages, RNA-seq and Ribo-seq) came to 32 genes.

Take `Cc1nn(CC(F)(F)F)cc1Nc1ncc(Br)c(NCc2ccc(S(N)(=O)=O)cc2)n1` [GSK8612]: the “CHX-induced ear hole regeneration” value in test [1] is “significantly inhibited”. The “expression of ISG genes induced by CHX” value in test [4] (GSK8612 5 μM, CHX 1 μg/ml) was “significantly inhibited the expression of ISG genes”.

On to `O=C1N[C@@H]2C(=C[C@H](O)[C@@H](O)[C@H]2O)c2cc3c(c(O)c21)OCO3` [Narciclasine], for which, in test [1], the “healing of 2 mm ear holes” value is “significantly promote the healing of 2 mm ear holes”; the “regenerated tissues in closed ear holes (histochemical and Masson staining)” value is “could regenerate tissues such as hair follicles, glands, cartilage and muscles, and tissue derivatives”. For the same compound, the “inhibition of protein translation (Puromycin incorporation)” value in test [5] (CHX as control) was “could significantly inhibit the protein translation process”.

With `O=C1N[C@H]2[C@H](O)[C@H](O)[C@@H](O)[C@H](O)[C@@H]2c2cc3c(c(O)c21)OCO3` [Pancratistatin], in test [1], the “closure of 2 mm ear hole” value is on record as “completely closed”; the “nature of the closure (HE and Masson staining)” value was “identified as a regeneration event”. Besides, the “inhibition of protein translation (Puromycin incorporation)” value in test [5] is “could significantly inhibit the protein translation process”.
